For five molecules, Kd results are on record in ChEMBL document CHEMBL1134818, “A designed antagonist of the thyroid hormone receptor” (Bioorg Med Chem Lett, 2001).

Assay [1] deals with T1, Thyroid hormone receptor beta (Homo sapiens, UniProt P10828).
T1 sequence (P10828 whole entry): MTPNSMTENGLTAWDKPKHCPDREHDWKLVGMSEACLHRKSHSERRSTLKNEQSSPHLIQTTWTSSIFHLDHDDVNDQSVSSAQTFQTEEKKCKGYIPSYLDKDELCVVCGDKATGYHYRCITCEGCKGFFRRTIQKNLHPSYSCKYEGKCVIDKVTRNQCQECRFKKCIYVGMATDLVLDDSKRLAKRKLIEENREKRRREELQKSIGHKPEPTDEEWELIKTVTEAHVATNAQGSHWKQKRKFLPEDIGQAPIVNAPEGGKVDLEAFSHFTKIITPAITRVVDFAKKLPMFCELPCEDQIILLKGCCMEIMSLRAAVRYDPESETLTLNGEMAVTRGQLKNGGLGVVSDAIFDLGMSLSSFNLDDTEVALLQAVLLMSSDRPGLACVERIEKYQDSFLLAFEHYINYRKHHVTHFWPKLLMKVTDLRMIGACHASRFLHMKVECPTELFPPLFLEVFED
Kind of assay: Binding affinity towards thyroid hormone receptor (hTR beta 1).

Assay [2] addresses T2, Thyroid hormone receptor alpha (Homo sapiens, UniProt P10827).
T2 sequence (P10827 whole entry): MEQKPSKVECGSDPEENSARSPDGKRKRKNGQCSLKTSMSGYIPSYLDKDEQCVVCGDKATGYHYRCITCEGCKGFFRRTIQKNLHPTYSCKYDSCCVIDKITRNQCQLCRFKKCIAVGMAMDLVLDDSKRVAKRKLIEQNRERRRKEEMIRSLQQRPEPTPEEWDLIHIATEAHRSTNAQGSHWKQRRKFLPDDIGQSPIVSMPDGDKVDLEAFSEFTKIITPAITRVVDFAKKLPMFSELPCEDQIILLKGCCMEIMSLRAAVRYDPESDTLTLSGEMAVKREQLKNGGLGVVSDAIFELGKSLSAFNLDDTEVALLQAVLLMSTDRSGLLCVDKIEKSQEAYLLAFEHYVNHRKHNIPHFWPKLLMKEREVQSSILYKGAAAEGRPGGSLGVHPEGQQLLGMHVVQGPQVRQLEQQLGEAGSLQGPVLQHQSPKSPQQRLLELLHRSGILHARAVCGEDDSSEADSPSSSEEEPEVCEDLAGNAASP
The assay is described as follows: Binding affinity towards thyroid hormone receptor (hTR alpha 1).

By Kd is commonly meant the concentration at which binding is half-saturated. Read a low Kd as a tighter complex. Regarding `C=CCC(c1ccc(O)c(C(C)C)c1)c1c(C)cc(OCC(=O)O)cc1C` (stereo not given), the Kd came to 90 nM in assay [1] and 430 nM in assay [2].

Take `Cc1cc(OCC(=O)O)cc(C)c1C(CCCO)c1ccc(O)c(C(C)C)c1` (stereo not given): the Kd in assay [1] came out at 3600 nM; in assay [2], 1400 nM.

In the case of `CCCCN(C)C(=O)CCCCCC/C=C\CCC(c1ccc(O)c(C(C)C)c1)c1c(C)cc(OCC(=O)O)cc1C` (stereo not given), the results for the Kd in assay [1] and in assay [2] were 720 nM and 240 nM, respectively.

Take `COc1ccc(C(c2ccc(O)c(C(C)C)c2)c2c(C)cc(OCC(=O)O)cc2C)c(OC)c1` (stereo not given): the dissociation constant Kd in assay [1] came to 4200 nM; in assay [2] it was 1400 nM.

For `CCCCN(C)C(=O)CCCCCCCCCCC(c1ccc(O)c(C(C)C)c1)c1c(C)cc(OCC(=O)O)cc1C` (stereo not given), the Kd in assay [1] amounted to 148 nM; in assay [2], 112 nM.
